# Values of other authors in patent US20030165581A1, “Compositions for treating diabetes mellitus, methods of use and manufacturing process of the same” (priority 2002, published 2003).
# Like-named read-outs stand apart in the source and are kept apart here.
# Key:
# [1] = system: Ehrlich ascites tumor cells; details: time course of glucose uptake
# [2] = system: hereditary Type II diabetic mice
# [3] = system: Type II diabetic rats; details: supplementation with corosolic acid; control group showed elevation
# [4] = system: normal rabbits
# [5] = system: mice; details: oral dose
# [6] = system: rats with experimentally induced diabetes; details: reduced from 300 mg/dL
# [7] = system: human subjects with mild Type II diabetes
# [8] = system: subjects with mild Type II diabetes; details: for drop of average blood glucose level compared to placebo: dry powder base, two-piece hard gelatin capsule; for drop of average blood glucose level: oil based soft gelatin capsule, two weeks
# [9] = system: subjects with mild Type II diabetes; details: for average blood glucose level: soft gelatin formulation, 48 mg daily, control 168.3
# [10] = supplemented with corosolic acid
smiles,measurement,setting,value
C[C@H]1[C@H](C)CC[C@]2(C(=O)O)CC[C@]3(C)C(=CC[C@@H]4[C@@]5(C)C[C@@H](O)[C@H](O)C(C)(C)[C@@H]5CC[C@]43C)[C@H]12 [corosolic acid],glucose transport-stimulating activity (glucose uptake by Ehrlich cells),[1],significant glucose transport-stimulating activity
same,increase of plasma glucose levels,[2]; diet including corosolic acid for five weeks vs control diet,completely suppressed
same,level of serum insulin,[2]; [10],lowered
same,total plasma cholesterol,[2]; [10],lowered
same,urinary excreted glucose,[2]; [10],lowered
same,glucose levels,[3],decrease in glucose levels
same,time of peak reduction after administration,[4]; after large doses,two to four
same,blood sugar reduction,[4]; large doses,more than 57 mg per 100 mL blood
same,time blood sugar remained low,[4]; repetition of the first dose after two more hours,more than 5 hours
same,blood sugar levels,[5],reduces blood sugar levels
same,blood sugar level after corosolic acid,[6],150 mg/dL
same,adverse effects,[7]; short-term (four weeks) treatment,no signs of adverse effects
same,blood glucose levels,"[7]; tablet after each meal three times daily, four weeks, vs placebo",effective in reducing blood glucose levels
same,drop of average blood glucose level compared to placebo,[8]; 16 mg per day,3.18%
same,drop of average blood glucose level compared to placebo,[8]; 32 mg per day,6.5%
same,drop of average blood glucose level compared to placebo,[8]; 48 mg per day,20.2%
same,drop of average blood glucose level,[8]; 16 mg per day,4.9%
same,drop of average blood glucose level,[8]; 32 mg per day,10.7%
same,drop of average blood glucose level,[8]; 48 mg per day,31.9%
same,blood glucose level during washout,[9]; 15 days of washout after soft gelatin treatment,131.7 mg/dL
same,blood glucose level during washout,[9]; 30 days of washout after soft gelatin treatment,153.2 mg/dL
same,blood glucose level during washout,[9]; 45 days of washout after soft gelatin treatment,168.2 mg/dL
same,decline in blood glucose levels after a meal,[9]; compared to untreated (diabetic) control conditions,sharper decline
same,weight loss,[9]; dry-powder based formulation,no weight loss
same,average weight loss,[9]; oil-based formulation in a soft gelatin capsule,3.2 pounds
same,adverse effects,"[9]; oral dose, cross-over study",no signs of adverse effects
same,average blood glucose level,[9]; 15th day of treatment,127.2 mg/deciliter
same,average blood glucose level,[9]; 30th day of treatment,115.1 mg/deciliter
same,memory effect after termination of the treatment,[9]; washout period blood glucose levels,up to four
